In ChEMBL document CHEMBL4616595, “Targeted suppression of metastasis regulatory transcription factor SOX2 in various cancer cell lines using a sequence-specific designer pyrrole-imidazole polyamide” (Bioorg Med Chem, 2020):
Active and inactive are the calls of the source. The calls are words filed in the database; no cut-off is given here.

How the values were obtained:
[1] = tested on: SW-620; test: Cell cycle arrest in human SW620 cells assessed as reduction in accumulation at G2/M phase at 2 uM to 5 uM after 48 hrs by propidium iodide staining based flow cytometry analysis; assay type: functional
[2] = tested on: SW-620; test: Up regulation of p21cip1 mRNA expression in human SW620 cells incubated for 48 hrs by qRT-PCR analysis; assay type: functional, cell-based
[3] = tested on: U2OS; test: Cell cycle arrest in human U2OS cells assessed as increase in accumulation at sub-G1/G1 phase at 2 uM to 5 uM after 48 hrs by propidium iodide staining based flow cytometry analysis; assay type: functional
[4] = tested on: SOX2 promoter DNA; test: Binding affinity to SOX2 promoter 5'-CTTTGTT-3' DNA in human SW620 cells assessed as reduction in SOX2 protein level incubated for 48 hrs by immunostaining based FACS analysis; assay type: cell-based; conditions: SW-620
[5] = tested on: SOX2 promoter DNA; test: Binding affinity to SOX2 promoter 5'-CTTTGTT-3' DNA in human SW620 cells assessed as down regulation of JAG1 gene expression at 2 uM incubated for 48 hrs by Cy3-labelled cRNA-based microarray analysis; assay type: cell-based; conditions: SW-620
[6] = tested on: SW-620; test: Cytotoxicity against human SW620 cells assessed as reduction in cell viability incubated for 48 hrs by MTT assay; assay type: functional, cell-based
[7] = tested on: SOX2 promoter DNA; test: Binding affinity to SOX2 promoter 5'-CTTTGTT-3' DNA in human SW620 cells assessed as down regulation of Cyclin D1 gene expression at 2 uM incubated for 48 hrs by Cy3-labelled cRNA-based microarray analysis; assay type: cell-based; conditions: SW-620
[8] = tested on: SW-620; test: Antimigratory activity in human SW620 cells assessed as reduction in cell migration at 5 uM incubated for 24 hrs by Calcein AM staining based fluorescence microscopic analysis relative to untreated control; assay type: functional
[9] = tested on: MCF7; test: Cell cycle arrest in human MCF7 cells assessed as reduction in accumulation at S phase at 2 uM to 5 uM after 48 hrs by propidium iodide staining based flow cytometry analysis; assay type: functional
[10] = tested on: SOX2 promoter DNA; test: Binding affinity to SOX2 promoter 5'-CTTTGTT-3' DNA in human SW620 cells assessed as upregulation of CDKN2B mRNA expression incubated for 48 hrs by qRT-PCR analysis; assay type: cell-based; conditions: SW-620
[11] = tested on: SOX2 promoter DNA; test: Binding affinity to SOX2 promoter 5'-CTTTGTT-3' DNA in human SW620 cells assessed as down regulation of GLI3 gene expression at 2 uM incubated for 48 hrs by Cy3-labelled cRNA-based microarray analysis; assay type: cell-based; conditions: SW-620
[12] = tested on: MCF7; test: Cell cycle arrest in human MCF7 cells assessed as reduction in accumulation at G2/M phase at 2 uM to 5 uM after 48 hrs by propidium iodide staining based flow cytometry analysis; assay type: functional
[13] = tested on: SOX2 promoter DNA; test: Binding affinity to SOX2 promoter 5'-CTTTGTT-3' DNA in human ES2 cells assessed as reduction in SOX2 mRNA expression incubated for 48 hrs by qRT-PCR analysis; assay type: cell-based
[14] = tested on: MKN-45; test: Cell cycle arrest in human MKN45 cells assessed as reduction in accumulation at S phase at 2 uM to 5 uM after 48 hrs by propidium iodide staining based flow cytometry analysis; assay type: functional
[15] = tested on: SOX2 promoter DNA; test: Binding affinity to SOX2 promoter 5'-CTTTGTT-3' DNA in human SW620 cells assessed as downregulation WNT2B mRNA expression incubated for 48 hrs by qRT-PCR analysis; assay type: cell-based; conditions: SW-620
[16] = tested on: SOX2 promoter DNA; test: Binding affinity to SOX2 promoter 5'-CTTTGTT-3' DNA in human SW620 cells assessed as reduction in SOX2 protein level by measuring SOX2 level at 2 uM incubated for 48 hrs by immunostaining based FACS analysis (reference value: 55.9%); assay type: cell-based; parameters: scale not given: the % may be the effect or the level left; conditions: SW-620
[17] = tested on: SOX2 promoter DNA; test: Binding affinity to SOX2 promoter 5'-CTTTGTT-3' DNA in human SW620 cells assessed as down regulation of CDH2 gene expression at 2 uM incubated for 48 hrs by Cy3-labelled cRNA-based microarray analysis; assay type: cell-based; conditions: SW-620
[18] = tested on: SOX2 promoter DNA; test: Binding affinity to SOX2 promoter 5'-CTTTGTT-3' DNA in human SW620 cells assessed as down regulation of JAG1 mRNA expression at 2 uM incubated for 48 hrs by qRT-PCR analysis; assay type: cell-based; conditions: SW-620
[19] = tested on: MKN-45; test: Antiproliferative activity against human MKN45 cells assessed as inhibition of cell proliferation incubated for 48 hrs by [3H]thymidine incorporation based scintillation counting method; assay type: functional
[20] = tested on: SOX2 promoter DNA; test: Binding affinity to SOX2 promoter 5'-CTTTGTT-3' DNA in human MCF7 cells assessed as reduction in SOX2 mRNA expression incubated for 48 hrs by qRT-PCR analysis; assay type: cell-based
[21] = tested on: SOX2 promoter DNA; test: Binding affinity to SOX2 promoter 5'-CTTTGTT-3' DNA in human SW620 cells assessed as reduction in SOX2 mRNA expression incubated for 48 hrs by qRT-PCR analysis; assay type: cell-based; conditions: SW-620
[22] = tested on: MKN-45; test: Cytotoxicity against human MKN45 cells assessed as reduction in cell viability incubated for 48 hrs by MTT assay; assay type: functional, cell-based
[23] = tested on: SOX2 promoter DNA; test: Binding affinity to SOX2 promoter 5'-CTTTGTT-3' DNA in human SW620 cells assessed as down regulation of ALDH1A1 gene expression at 2 uM incubated for 48 hrs by Cy3-labelled cRNA-based microarray analysis; assay type: cell-based; conditions: SW-620
[24] = tested on: MKN-45; test: Cell cycle arrest in human MKN45 cells assessed as increase in accumulation at sub-G1/G1 phase at 2 uM to 5 uM after 48 hrs by propidium iodide staining based flow cytometry analysis; assay type: functional
[25] = tested on: SOX2 promoter DNA; test: Binding affinity to SOX2 promoter 5'-CTTTGTT-3' DNA in human SW620 cells assessed as down regulation of DOCK1 mRNA expression at 2 uM incubated for 48 hrs by qRT-PCR analysis; assay type: cell-based; conditions: SW-620
[26] = tested on: SOX2 promoter DNA; test: Binding affinity to SOX2 promoter 5'-CTTTGTT-3' DNA in mouse Wehi3 cells assessed as reduction in SOX2 mRNA expression incubated for 48 hrs by qRT-PCR analysis; assay type: cell-based
[27] = tested on: SOX2 promoter DNA; test: Binding affinity to SOX2 promoter 5'-CTTTGTT-3' DNA in human U2OS cells assessed as reduction in SOX2 protein level incubated for 48 hrs by immunostaining based FACS analysis; assay type: cell-based
[28] = tested on: SOX2 promoter DNA; test: Binding affinity to SOX2 promoter 5'-CTTTGTT-3' DNA in human SW620 cells assessed as down regulation of PROM1 gene expression at 2 uM incubated for 48 hrs by Cy3-labelled cRNA-based microarray analysis; assay type: cell-based; conditions: SW-620
[29] = tested on: MCF7; test: Cytotoxicity against human MCF7 cells assessed as reduction in cell viability incubated for 48 hrs by MTT assay; assay type: functional, cell-based
[30] = tested on: SOX2 promoter DNA; test: Binding affinity to SOX2 promoter 5'-CTTTGTT-3' DNA in human U2OS cells assessed as reduction in SOX2 mRNA expression incubated for 48 hrs by qRT-PCR analysis; assay type: cell-based
[31] = tested on: SOX2 promoter DNA; test: Binding affinity to SOX2 promoter 5'-CTTTGTT-3' DNA in human SW620 cells assessed as down regulation of VIM mRNA expression at 2 uM incubated for 48 hrs by qRT-PCR analysis; assay type: cell-based; conditions: SW-620
[32] = tested on: SOX2 promoter DNA; test: Binding affinity to SOX2 promoter 5'-CTTTGTT-3' DNA in human SW620 cells assessed as reduction in SOX2 protein level by measuring SOX2 level at 5 uM incubated for 48 hrs by immunostaining based FACS analysis (reference value: 55.9%); assay type: cell-based; parameters: scale not given: the % may be the effect or the level left; conditions: SW-620

CC(=O)Nc1cc(C(=O)Nc2cc(C(=O)Nc3cc(C(=O)NCCC(=O)Nc4cn(C)c(C(=O)Nc5cc(C(=O)NCCCC(=O)Nc6cc(C(=O)Nc7cc(C(=O)NCCC(=O)Nc8cc(C(=O)Nc9cc(C(=O)Nc%10cn(C)c(C(=O)NCCCN(C)C)n%10)n(C)c9)n(C)c8)n(C)c7)n(C)c6)n(C)c5)n4)n(C)c3)n(C)c2)n(C)c1
Activity [1]: Active | Activity [2]: Active | Activity [3]: Active | Activity [4]: Dose-dependent effect | Activity [5]: Active | Activity [6]: Dose-dependent effect | Activity [7]: Active | fold change (FC) [8]: 5 | Activity [9]: Active | Activity [10]: Active | Activity [11]: Active | Activity [12]: Active | Activity [13]: Active | Activity [14]: Active | Activity [15]: Active | Activity [16]: 37.4% | Activity [17]: Active | Activity [18]: Active | inhibition [19]: Dose-dependent effect | Activity [20]: Active | Activity [21]: Active | Activity [22]: Dose-dependent effect | Activity [23]: Active | Activity [24]: Active | Activity [25]: Active | Activity [26]: Active | Activity [27]: Dose-dependent effect | Activity [28]: Active | Activity [29]: Dose-dependent effect | Activity [30]: Active | Activity [31]: Active | Activity [32]: 28.1%
